Values of other authors, collected in patent US8071623B2, “Amide substituted indazoles as poly(ADP-ribose)polymerase(PARP) inhibitors” (Instituto di Ricerche di Biologia Molecolare P. Angeletti …, priority 2007, dated 2011).

System: ischemia and reperfusion of the heart
Details: rabbits

Compound	reduced infarct size (single injection 1 mg/kg)	reductions in infarct size in the heart (single injection 10 mg/kg, one minute before occlusion or one minute before reperfusion)
Oc1cccc2c(O)nccc12 [1,5-dihydroxyisoquinoline]	38-48%	–
NC(=O)c1cccc(N)c1 [3-amino-benzamide]	–	32-42%
